According to ChEMBL document CHEMBL1156313, “Structure-activity relationship of novel DAPK inhibitors identified by structure-based virtual screening” (Bioorg Med Chem, 2010):

Key:
[1] = target: MAP kinase-activated protein kinase 2 (Homo sapiens) (UniProt P49137); assay: Inhibition of MAPKAPK2 at 10 uM
[2] = target: Mitogen-activated protein kinase 14 (Homo sapiens) (UniProt Q16539); assay: Inhibition of P38alpha at 10 uM
[3] = target: Death-associated protein kinase 1 (Homo sapiens) (UniProt P53355); assay: Inhibition of DAPK1 at 10 uM
[4] = target: RAC-alpha serine/threonine-protein kinase (Homo sapiens) (UniProt P31749); assay: Inhibition of AKT1 at 10 uM
[5] = target: T1, Death-associated protein kinase 3 (Homo sapiens, UniProt O43293); assay: Inhibition of human recombinant DAPK3 at 10 uM
[6] = target: Proto-oncogene tyrosine-protein kinase Src (Homo sapiens) (UniProt P12931); assay: Inhibition of SRC at 10 uM
[7] = target: Serine/threonine-protein kinase Chk2 (Homo sapiens) (UniProt O96017); assay: Inhibition of CHK2 at 10 uM
[8] = target: Tyrosine-protein kinase Fyn (Homo sapiens) (UniProt P06241); assay: Inhibition of FYN at 10 uM
[9] = target: T2, Serine/threonine-protein kinase Chk1 (Homo sapiens) (UniProt O14757); assay: Inhibition of CHK1 at 10 uM
T2 sequence (whole entry): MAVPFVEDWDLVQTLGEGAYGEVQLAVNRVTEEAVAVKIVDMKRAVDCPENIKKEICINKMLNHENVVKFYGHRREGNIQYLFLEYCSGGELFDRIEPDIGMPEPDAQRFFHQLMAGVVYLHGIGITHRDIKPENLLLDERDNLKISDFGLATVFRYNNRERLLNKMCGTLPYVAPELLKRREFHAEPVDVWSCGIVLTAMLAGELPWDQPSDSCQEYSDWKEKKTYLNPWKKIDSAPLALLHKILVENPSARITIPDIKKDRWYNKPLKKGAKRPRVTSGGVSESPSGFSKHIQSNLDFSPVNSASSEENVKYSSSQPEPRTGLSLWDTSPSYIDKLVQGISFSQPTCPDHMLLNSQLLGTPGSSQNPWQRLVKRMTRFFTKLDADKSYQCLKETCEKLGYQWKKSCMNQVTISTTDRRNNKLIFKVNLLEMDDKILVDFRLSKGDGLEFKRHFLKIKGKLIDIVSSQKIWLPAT

[10] = target: MAP kinase-activated protein kinase 5 (Homo sapiens) (UniProt Q8IW41); assay: Inhibition of PRAK at 10 uM
[11] = target: Insulin receptor (Homo sapiens) (UniProt P06213); assay: Inhibition of INSR at 10 uM
[12] = target: Ribosomal protein S6 kinase alpha-1 (Homo sapiens) (UniProt Q15418); assay: Inhibition of RSK1 at 10 uM
[13] = target: Mitogen-activated protein kinase 3 (Homo sapiens) (UniProt P27361); assay: Inhibition of ERK1 at 10 uM
[14] = Inhibition of PKA at 10 uM
[15] = target: T3, Protein kinase C zeta type (Homo sapiens) (UniProt Q05513); assay: Inhibition of PKCzeta at 10 uM
T3 sequence (whole entry): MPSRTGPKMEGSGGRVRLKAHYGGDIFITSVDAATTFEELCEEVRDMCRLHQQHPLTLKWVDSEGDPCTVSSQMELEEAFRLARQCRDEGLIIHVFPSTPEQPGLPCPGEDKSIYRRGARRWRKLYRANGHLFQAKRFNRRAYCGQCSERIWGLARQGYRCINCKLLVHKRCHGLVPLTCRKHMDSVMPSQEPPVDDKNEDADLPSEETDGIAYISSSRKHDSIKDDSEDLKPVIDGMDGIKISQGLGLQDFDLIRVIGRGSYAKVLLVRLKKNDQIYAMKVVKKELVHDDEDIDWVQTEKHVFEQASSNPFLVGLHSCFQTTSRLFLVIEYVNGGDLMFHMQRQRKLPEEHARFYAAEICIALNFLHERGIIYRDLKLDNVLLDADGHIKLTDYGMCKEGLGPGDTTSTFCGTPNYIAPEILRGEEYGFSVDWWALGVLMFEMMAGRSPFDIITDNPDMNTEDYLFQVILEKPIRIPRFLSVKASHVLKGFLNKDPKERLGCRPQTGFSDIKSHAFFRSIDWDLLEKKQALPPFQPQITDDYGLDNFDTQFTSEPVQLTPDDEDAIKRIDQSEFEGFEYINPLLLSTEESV

[16] = target: T1, Death-associated protein kinase 3; assay: Inhibition of human recombinant DAPK3
[17] = target: Tyrosine-protein kinase ABL1 (Homo sapiens) (UniProt P00519); assay: Inhibition of ABL at 10 uM
[18] = target: T1, Death-associated protein kinase 3; assay: Inhibition of human recombinant DAPK3 at 1 uM
[19] = target: T4, Serine/threonine-protein kinase D2 (Homo sapiens) (UniProt Q9BZL6); assay: Inhibition of PKD2 at 10 uM
T4 sequence (whole entry): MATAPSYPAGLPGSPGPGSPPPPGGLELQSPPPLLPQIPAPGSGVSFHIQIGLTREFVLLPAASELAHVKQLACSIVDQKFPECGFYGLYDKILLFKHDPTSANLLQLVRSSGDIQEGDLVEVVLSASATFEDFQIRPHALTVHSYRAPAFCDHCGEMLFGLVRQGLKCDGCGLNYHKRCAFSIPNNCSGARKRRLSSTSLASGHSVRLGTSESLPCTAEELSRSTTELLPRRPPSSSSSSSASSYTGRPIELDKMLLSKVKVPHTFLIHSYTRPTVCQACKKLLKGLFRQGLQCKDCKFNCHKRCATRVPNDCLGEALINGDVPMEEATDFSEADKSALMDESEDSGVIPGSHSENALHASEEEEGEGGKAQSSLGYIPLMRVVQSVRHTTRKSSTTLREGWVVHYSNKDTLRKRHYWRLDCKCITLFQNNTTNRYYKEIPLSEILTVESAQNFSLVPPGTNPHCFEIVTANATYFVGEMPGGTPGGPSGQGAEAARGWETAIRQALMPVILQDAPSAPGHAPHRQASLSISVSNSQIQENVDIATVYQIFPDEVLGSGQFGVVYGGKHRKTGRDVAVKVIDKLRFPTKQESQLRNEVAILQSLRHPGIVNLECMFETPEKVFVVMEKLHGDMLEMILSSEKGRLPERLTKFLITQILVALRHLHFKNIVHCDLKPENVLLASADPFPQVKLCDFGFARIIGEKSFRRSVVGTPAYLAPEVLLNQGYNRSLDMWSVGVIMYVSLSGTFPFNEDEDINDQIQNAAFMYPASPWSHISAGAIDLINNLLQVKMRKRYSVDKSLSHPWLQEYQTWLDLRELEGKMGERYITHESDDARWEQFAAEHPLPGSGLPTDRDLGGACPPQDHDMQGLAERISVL

[20] = target: T5, Aurora kinase A (Homo sapiens) (UniProt O14965); assay: Inhibition of Aurora A at 10 uM
T5 sequence (whole entry): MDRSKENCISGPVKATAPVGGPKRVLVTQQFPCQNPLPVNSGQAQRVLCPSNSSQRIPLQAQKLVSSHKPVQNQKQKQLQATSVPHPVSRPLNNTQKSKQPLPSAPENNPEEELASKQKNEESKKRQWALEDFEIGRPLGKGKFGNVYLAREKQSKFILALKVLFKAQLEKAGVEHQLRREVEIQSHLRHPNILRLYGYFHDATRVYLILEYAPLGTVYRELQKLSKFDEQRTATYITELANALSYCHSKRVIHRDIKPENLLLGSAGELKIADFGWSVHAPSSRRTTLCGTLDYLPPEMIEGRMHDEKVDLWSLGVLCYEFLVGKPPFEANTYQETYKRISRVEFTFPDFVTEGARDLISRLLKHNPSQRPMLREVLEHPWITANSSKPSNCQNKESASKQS

[21] = target: RAC-beta serine/threonine-protein kinase (Homo sapiens) (UniProt P31751); assay: Inhibition of AKT2 at 10 uM
[22] = target: Tyrosine-protein kinase Lyn (Homo sapiens) (UniProt P07948); assay: Inhibition of LYN at 10 uM
[23] = target: Tyrosine-protein kinase Lck (Homo sapiens) (UniProt P06239); assay: Inhibition of LCK at 10 uM
[24] = target: Hepatocyte growth factor receptor (Homo sapiens) (UniProt P08581); assay: Inhibition of MET at 10 uM
[25] = target: Mitogen-activated protein kinase 1 (Homo sapiens) (UniProt P28482); assay: Inhibition of ERK2 at 10 uM
[26] = target: Glycogen synthase kinase-3 beta (Homo sapiens) (UniProt P49841); assay: Inhibition of GSK3-beta at 10 uM
[27] = target: Ribosomal protein S6 kinase alpha-5 (Homo sapiens) (UniProt O75582); assay: Inhibition of MSK1 at 10 uM

Sequence of Death-associated protein kinase 1 (Homo sapiens) (P53355 whole entry, looked up): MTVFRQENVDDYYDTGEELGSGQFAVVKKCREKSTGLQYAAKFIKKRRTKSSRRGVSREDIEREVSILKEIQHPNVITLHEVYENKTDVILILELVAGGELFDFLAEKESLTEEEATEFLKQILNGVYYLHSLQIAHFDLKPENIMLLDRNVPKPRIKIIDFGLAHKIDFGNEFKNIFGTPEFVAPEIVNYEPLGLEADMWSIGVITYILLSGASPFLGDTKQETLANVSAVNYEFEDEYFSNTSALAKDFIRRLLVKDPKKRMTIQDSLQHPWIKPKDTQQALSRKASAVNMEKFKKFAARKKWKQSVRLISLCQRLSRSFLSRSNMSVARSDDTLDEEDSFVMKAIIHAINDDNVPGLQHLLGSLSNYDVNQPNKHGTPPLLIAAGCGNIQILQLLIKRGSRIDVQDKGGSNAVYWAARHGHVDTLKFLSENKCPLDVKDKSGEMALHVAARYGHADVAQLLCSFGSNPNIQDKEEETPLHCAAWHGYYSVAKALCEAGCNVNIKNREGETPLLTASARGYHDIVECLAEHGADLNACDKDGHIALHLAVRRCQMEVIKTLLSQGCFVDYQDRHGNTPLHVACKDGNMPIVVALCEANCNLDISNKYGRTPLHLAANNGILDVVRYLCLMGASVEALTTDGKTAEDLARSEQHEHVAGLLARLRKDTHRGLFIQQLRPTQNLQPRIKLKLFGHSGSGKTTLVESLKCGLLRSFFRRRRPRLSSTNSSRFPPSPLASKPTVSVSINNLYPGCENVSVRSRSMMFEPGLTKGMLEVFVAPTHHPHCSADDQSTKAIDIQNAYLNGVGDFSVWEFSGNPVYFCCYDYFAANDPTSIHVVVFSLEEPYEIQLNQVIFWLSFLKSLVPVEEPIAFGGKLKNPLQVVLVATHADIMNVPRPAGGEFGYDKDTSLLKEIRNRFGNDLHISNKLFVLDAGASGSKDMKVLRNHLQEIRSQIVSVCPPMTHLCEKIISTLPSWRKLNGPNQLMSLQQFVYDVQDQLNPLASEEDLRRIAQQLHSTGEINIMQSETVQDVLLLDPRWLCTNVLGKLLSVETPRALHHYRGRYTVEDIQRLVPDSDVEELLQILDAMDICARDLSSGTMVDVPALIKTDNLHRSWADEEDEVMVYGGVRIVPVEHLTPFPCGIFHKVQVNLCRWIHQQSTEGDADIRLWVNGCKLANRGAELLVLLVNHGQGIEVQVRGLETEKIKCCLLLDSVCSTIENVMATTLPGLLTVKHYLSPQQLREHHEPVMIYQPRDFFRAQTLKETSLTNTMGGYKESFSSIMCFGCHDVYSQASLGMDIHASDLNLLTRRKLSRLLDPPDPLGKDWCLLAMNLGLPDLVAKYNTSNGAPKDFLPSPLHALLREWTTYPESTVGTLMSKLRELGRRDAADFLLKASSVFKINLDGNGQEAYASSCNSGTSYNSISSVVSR
Sequence of Proto-oncogene tyrosine-protein kinase Src (Homo sapiens) (P12931 2-536 limits assumed): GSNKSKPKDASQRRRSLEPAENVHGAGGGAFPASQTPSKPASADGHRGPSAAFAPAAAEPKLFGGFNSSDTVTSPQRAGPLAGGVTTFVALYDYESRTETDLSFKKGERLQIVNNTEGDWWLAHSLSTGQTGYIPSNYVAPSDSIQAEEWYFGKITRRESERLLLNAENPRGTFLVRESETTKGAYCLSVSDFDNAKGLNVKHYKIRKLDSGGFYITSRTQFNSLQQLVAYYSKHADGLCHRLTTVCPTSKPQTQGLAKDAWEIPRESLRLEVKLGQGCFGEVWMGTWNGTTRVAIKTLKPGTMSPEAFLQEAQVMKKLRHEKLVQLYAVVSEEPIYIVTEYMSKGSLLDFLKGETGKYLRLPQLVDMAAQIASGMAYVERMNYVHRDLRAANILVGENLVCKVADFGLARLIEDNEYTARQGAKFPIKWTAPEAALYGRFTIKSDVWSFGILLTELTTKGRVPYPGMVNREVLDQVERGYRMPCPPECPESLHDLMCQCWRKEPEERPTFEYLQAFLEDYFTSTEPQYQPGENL
Sequence of Tyrosine-protein kinase Lck (Homo sapiens) (P06239 2-509 limits assumed): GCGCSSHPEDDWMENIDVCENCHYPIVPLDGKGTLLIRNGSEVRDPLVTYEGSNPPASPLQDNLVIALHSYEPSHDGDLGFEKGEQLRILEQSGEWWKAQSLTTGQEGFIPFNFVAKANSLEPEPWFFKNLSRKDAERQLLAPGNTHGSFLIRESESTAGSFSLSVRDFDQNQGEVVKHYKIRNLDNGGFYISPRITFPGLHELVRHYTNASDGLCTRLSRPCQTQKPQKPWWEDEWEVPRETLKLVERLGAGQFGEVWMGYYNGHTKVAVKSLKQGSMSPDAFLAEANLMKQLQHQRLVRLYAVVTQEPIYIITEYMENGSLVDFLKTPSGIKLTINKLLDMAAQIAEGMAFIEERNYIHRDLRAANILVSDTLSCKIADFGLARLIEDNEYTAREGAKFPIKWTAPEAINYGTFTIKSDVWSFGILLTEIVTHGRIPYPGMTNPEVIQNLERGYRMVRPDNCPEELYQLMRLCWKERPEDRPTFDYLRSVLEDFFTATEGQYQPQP
Sequence of Insulin receptor (Homo sapiens) (P06213 28-758 limits assumed): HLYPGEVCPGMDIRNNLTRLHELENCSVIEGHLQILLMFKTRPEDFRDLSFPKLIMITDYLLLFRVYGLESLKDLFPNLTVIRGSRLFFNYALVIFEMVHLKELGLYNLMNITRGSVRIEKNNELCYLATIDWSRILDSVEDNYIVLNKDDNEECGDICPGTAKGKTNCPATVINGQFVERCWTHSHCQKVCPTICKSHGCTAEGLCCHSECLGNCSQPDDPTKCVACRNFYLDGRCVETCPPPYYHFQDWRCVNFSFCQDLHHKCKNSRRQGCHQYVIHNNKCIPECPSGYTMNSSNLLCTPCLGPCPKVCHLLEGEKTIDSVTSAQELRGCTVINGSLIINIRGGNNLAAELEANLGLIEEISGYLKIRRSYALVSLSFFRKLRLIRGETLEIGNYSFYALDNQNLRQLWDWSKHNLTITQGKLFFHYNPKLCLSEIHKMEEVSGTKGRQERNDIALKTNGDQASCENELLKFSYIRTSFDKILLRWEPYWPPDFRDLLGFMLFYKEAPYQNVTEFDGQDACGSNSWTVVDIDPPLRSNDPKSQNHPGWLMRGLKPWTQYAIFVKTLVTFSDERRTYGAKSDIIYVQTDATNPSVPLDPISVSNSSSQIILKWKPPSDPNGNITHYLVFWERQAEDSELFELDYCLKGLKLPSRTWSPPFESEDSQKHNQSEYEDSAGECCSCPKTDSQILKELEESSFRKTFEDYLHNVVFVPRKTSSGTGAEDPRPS
Sequence of Insulin receptor (Homo sapiens) (P06213 763-1382 limits assumed): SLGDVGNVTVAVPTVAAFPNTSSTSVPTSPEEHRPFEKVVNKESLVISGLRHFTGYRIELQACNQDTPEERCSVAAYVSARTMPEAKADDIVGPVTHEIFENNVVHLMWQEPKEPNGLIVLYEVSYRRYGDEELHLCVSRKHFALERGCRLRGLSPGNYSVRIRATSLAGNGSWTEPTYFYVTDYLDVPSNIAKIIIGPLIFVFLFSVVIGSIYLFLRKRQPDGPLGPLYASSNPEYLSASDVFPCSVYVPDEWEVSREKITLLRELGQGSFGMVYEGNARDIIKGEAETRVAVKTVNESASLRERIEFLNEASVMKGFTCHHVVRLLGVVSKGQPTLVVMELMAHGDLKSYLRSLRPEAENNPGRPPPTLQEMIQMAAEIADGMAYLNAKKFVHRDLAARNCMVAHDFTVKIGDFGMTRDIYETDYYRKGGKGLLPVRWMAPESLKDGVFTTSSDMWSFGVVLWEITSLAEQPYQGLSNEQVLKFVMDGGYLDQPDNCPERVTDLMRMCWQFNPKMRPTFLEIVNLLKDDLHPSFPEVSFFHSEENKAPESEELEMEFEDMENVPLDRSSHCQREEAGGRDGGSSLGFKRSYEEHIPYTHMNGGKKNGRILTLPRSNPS
Sequence of Tyrosine-protein kinase ABL1 (Homo sapiens) (P00519 whole entry): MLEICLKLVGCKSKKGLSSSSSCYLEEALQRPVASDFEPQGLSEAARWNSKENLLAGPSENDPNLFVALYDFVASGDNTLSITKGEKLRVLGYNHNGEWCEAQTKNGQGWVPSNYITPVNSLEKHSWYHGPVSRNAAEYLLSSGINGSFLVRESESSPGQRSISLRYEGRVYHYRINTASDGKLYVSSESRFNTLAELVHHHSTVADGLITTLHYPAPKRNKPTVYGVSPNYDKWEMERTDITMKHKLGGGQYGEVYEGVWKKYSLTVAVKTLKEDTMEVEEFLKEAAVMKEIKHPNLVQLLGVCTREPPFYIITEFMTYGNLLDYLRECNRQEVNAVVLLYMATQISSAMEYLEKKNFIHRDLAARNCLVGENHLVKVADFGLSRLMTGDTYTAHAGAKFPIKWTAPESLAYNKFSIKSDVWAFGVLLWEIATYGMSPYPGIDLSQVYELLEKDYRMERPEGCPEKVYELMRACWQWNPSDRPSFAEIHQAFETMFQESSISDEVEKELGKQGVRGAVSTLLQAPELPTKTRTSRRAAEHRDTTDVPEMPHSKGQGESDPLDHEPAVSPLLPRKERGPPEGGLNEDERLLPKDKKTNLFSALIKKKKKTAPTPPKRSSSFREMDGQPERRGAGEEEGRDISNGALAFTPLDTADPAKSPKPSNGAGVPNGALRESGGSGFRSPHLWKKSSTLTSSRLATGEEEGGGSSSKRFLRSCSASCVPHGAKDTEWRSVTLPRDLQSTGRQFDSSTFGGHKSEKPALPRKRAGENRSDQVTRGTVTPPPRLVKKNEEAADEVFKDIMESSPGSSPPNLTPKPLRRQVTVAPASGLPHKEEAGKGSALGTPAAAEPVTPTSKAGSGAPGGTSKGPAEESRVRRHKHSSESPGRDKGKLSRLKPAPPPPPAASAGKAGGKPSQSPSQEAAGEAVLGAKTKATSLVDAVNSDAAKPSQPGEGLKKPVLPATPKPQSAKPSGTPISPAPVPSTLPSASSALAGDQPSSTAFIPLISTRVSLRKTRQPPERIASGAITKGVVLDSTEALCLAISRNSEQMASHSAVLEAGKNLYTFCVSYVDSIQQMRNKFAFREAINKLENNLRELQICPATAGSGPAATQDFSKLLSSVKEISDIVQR

SMILES | inhibition [1] | inhibition [2] | inhibition [3] | inhibition [4] | inhibition [5] | inhibition [6] | inhibition [7] | inhibition [8] | inhibition [9] | inhibition [11] | inhibition [12] | inhibition [13] | inhibition [15] | IC50 [16] | inhibition [17] | inhibition [18] | inhibition [19] | inhibition [20] | inhibition [21] | inhibition [22] | other results
Cc1cc(C2=N/C(=C\c3cccnc3)C(=O)O2)ccc1Br | 2% | 5% | 82% | 12% | 94% | 2% | 19% | 9% | 5% | 0% | 13% | 18% | 5% | 0.278 µM | 7% | 88% | 11% | 16% | 28% | 0% | inhibition [10]: 10%; inhibition [14]: 19%
O=C1OC(c2ccccc2)=N/C1=C\c1cccnc1 | 5% | 3% | 98% | 12% |  | 13% | 4% | 6% | 3% | 7% | 5% | 16% | 3% | 0.583 µM | 16% |  | 7% | 6% | 13% | 10% | inhibition [23]: 9%; inhibition [24]: 3%; inhibition [25]: 7%; inhibition [26]: 9%
O=C1OC(c2ccc(Cl)cc2)=N/C1=C\c1cccnc1 |  | 2% | 76% | 13% | 96% | 3% | 24% |  | 12% |  | 10% | 25% | -3% | 0.529 µM |  | 85% | 17% | 15% | 17% |  | inhibition [23]: 8%; inhibition [14]: 9%; inhibition [25]: 10%; inhibition [26]: 7%; inhibition [27]: 0%
O=C1OC(c2ccc(F)c(F)c2)=N/C1=C\c1cccnc1 |  | 8% | 97% | 12% | 98% | 6% | 7% | 2% | 7% | 7% |  | 25% | 8% | 0.346 µM |  | 89% | 3% | 8% | 18% | 2% | inhibition [23]: 3%; inhibition [14]: 2%; inhibition [25]: 34%; inhibition [26]: 0%
Cc1cccc(C2=N/C(=C\c3cccnc3)C(=O)O2)c1 | 3% | 1% | 98% | 5% | 96% | 5% |  |  | 5% | 3% | 15% | 0% | 2% | 0.714 µM | 1% | 68% | 1% | 3% | 6% |  | 
O=C1OC(/C=C/c2ccccc2)=NC/1=C\c1cccnc1 | 46% | 8% | 91% | 15% | 100% | 5% | 17% | 1% | 12% | 4% | 4% | 7% | 3% |  | 9% |  |  | 14% | 17% | 1% | inhibition [10]: 5%; inhibition [23]: 8%; inhibition [24]: 3%; inhibition [25]: 20%; inhibition [26]: 3%; inhibition [27]: 13%
